# How the values were obtained:
# H2O2 evolved host cells [1] = assay: ChemStress assay, survival with prooxidant chemical compounds (PrestoBlue); type: cell-based, Chinese hamster; conditions: 72 hours growth in the presence of the stressor
# Procedure: To confirm the H2O2 evolved host cell's ability to resist oxidative stress, the cells were evaluated for survival in response to several prooxidant chemical compounds selected to mimic bioreactor stressors: […] These chemicals affect a diverse subset of intracellular redox pathways such as those involved in GSH biosynthesis and turnover (BSO and MS) (Lee et al. (1992) “Effects of buthionine sulfoximine treatment on cellular glutathione levels and cytotoxicities of cisplatin, carboplatin and radiation in human stomach and ovarian cancer cell lines”. Korean J Intern Med. 7(2):111-7; Dunning et al. (2013) “Glutathione and antioxidant enzymes serve complementary roles in protecting activated hepatic stellate cells against hydrogen peroxide-induced cell death”. Biochim Biophys Acta. 1832(12):2027-34), intracellular ROS generation (MSB) (Beck et al. (2011) “Ascorbate/menadione-induced oxidative stress kills cancer cells that express normal or mutated forms of the oncogenic protein Bcr-Abl. An in vitro and in vivo mechanistic study”. […] J Neurosci Res. 64(6):646-53). Chem stress assays were performed according to the manufacturer's instructions (ChemStress®, […], Ireland). In brief, CHO or H2O2 evolved host cells were seeded into […] ChemStress plates (ChemStress®, […], Ireland) at 18,000 cells/well in 90 μl proprietary medium supplemented with 6 mM L-glutamine. A control well was incubated with medium alone. Plates were incubated for 72-hours in a static incubator at 36.5° C., 6% CO2. Following this, 10 μl of neat PrestoBlue dye (Thermo Fisher Scientific, UK) was added to all wells before plates were mixed for 20 seconds and incubated for a further 30 minutes at 36.5° C., 6% CO2. Plates were analyzed using a PHERAstar plate reader (BMG LABTECH, Ortenberg, Germany) with preconfigured protocols (excitation 560 nm, emission 590 nm). Data was analyzed, using the […] software ([…], Ireland).
# H2O2 evolved host cells [2] = assay: cells; conditions: Cricetulus griseus
# Procedure: The H2O2 evolved host and CHO control host were passaged to 90 PDL and 7 PDL respectively in CD-CHO supplemented with 6 mM glutamine after which both hosts were re-challenged with 37 mM H2O2 and viabilities recorded (viability measured on days 1, 2, 4, 7, 10, 11 and 12)
# Specifically, CHO-K1 cells adapted to grow in suspension culture (CHO Control) were revived in chemically-defined (CD) CHO medium (Life technologies, Paisley, UK) supplemented with 6 mM L-glutamine (Life technologies, Paisley, UK) and passaged three times at 0.2×10^6 cells/ml in a 30 ml culture volume. When cells reached 99% viability, they were incubated for 1 hour with 14 mM H2O2 (Sigma-Aldrich, UK) before centrifugation at 130 g for 5 minutes and resuspended in 30 ml fresh CD CHO supplemented with 6 mM L-glutamine. CHO cells were left to recover until cells reached 70% viability. This process was repeated an additional three times resulting in a total of four exposures to 14 mM H2O2, in which cells gradually recovered over a period of 10-20 days, with the medium being replenished periodically, until cells reached 70% viability. The cells were then subjected to one round of 18.5 mM H2O2 treatment following the method above until cells reached 90% viability. […]
# H2O2 evolved host A = assay: Survival of BisAb-expressing pools in the presence of MSB (Vi-Cell viability); type: cell-based, Chinese hamster; conditions: 6 μM MSB, up to 72 hours, cells expressing BisAb A, versus H2O treated control
# Procedure: (§1) Expressing pools were compared for survival in the presence of the widely used prooxidant, menadione sodium bisulphite (MSB). Briefly, CHO Control or H2O2 evolved host cells expressing BisAbs A or BisAb B were seeded at 0.3×10^6 cells/ml into 30 ml of proprietary medium supplemented with 50 μM MSX. A total of 6 μM Menadione Sodium Bisulfite (MSB) (Sigma-Aldrich, UK) or water was added to test and control cultures, respectively. Cells were assessed for viability and viable cell density (VCD) using a Vi-Cell XR Cell Viability Analyser (Beckman Coulter, USA) at 24, 48 and 72 hours post addition of MSB or water.
# H2O2 evolved host B = assay: as above; type: cell-based, Chinese hamster; conditions: 6 μM MSB, up to 72 hours, cells expressing BisAb B, versus H2O treated control
# Procedure: as §1
SMILES,viability of H2O2 evolved host cells compared to CHO control cells (H2O2 evolved host cells [1]),viability at 37000 µM (H2O2 evolved host cells [2]),viability (H2O2 evolved host A),viability (H2O2 evolved host B)
"CCCCS(=N)(=O)CCC(N)C(=O)O (stereo not shown) [BSO, Buthionine Sulfoximine]",significantly improved viabilities,–,–,–
"[Cl][Co][Cl] [CoCl, Cobalt chloride]",significantly improved viabilities,–,–,–
"OO [H2O2, hydrogen peroxide]",–,~50%,–,–
"O=C(O)CC(S)C(=O)O (stereo not shown) [MS, Mercaptosuccinic Acid]",significantly improved viabilities,–,–,–
"CC1(S(=O)(=O)[O-])CC(=O)c2ccccc2C1=O.[Na+] (stereo not shown) [MSB, Menadione Sodium Bisulphite]",significantly improved viabilities,–,comparable with H2O treated controls,comparable with H2O treated controls

# Reference: patent US20240076626A1, “HYDROGEN PEROXIDE EVOLVED HOST CELL” (MedImmune Limited, priority 2020, published 2024)
